Reference: patent US20230348369A1 (Cytokinetics, Inc., priority 2020, published 2023)
Like-named read-outs stand apart in the source and are kept apart here.

Target: human NAMPT (Homo sapiens, UniProt P43490)
Assay: Human recombinant enzyme assay (NMN fluorescence biochemical assay, activation of NAMPT)
Summary of the method: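 Activation of recombinant human NAMPT (6 nM) with 2.5 mM ATP, 20 μM PRPP and 150 μM nicotinamide in 50 mM HEPES pH 7.2, 1 mM DTT, 1 mM CHAPS, 50 mM NaCl, 100 mM MgCl2; 60 min, ambient temperature. NMN formed was derivatized with acetophenone/KOH/formic acid, fluorescence read at 355/460 nm after 40 min.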

[1] = Table A, human recombinant NAMPT, NMN formation, 60 min
[2] = Table A, human recombinant NAMPT, NMN formation, 60 min, read-out: EC50 Human

Sequence of human NAMPT (P43490 whole entry): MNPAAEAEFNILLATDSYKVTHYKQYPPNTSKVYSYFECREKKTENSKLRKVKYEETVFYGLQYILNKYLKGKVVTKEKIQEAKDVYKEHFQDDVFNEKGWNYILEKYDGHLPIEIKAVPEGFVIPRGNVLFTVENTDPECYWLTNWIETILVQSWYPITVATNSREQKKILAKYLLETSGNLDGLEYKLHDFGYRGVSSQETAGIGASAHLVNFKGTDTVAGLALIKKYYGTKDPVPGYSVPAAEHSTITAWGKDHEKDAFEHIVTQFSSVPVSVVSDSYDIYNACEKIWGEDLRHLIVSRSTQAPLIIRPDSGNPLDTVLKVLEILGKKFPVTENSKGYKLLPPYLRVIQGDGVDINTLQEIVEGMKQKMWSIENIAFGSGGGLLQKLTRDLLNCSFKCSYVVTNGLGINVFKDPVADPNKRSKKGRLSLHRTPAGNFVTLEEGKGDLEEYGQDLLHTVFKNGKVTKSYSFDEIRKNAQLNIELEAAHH

Row | AC1.4 Human [1] | EC50 [2] | SMILES | EC50
1 | 0.1 µM | 1.8 µM | COc1ccc(CNC(=O)NC2CC3(C2)CC(C(=O)N2CCCc4ccc(F)cc42)C3)cc1 (stereo not drawn) [Compound 106, 1-(6-(7-fluoro-1,2,3,4-tetrahydroquinoline-1-carbonyl)spiro[3.3]heptan-2-yl)-3-(4-methoxybenzyl)urea] | –
2 | 2.9 µM | 48.8 µM | COc1ccc(CNC(=O)NC2CC3(C2)CC(C(=O)N2CCCc4cc(OC(F)(F)F)ccc42)C3)cc1 (stereo not drawn) [Compound 107, 1-(4-methoxybenzyl)-3-(6-(6-(trifluoromethoxy)-1,2,3,4-tetrahydroquinoline-1-carbonyl)spiro[3.3]heptan-2-yl)urea] | –
3 | 0.1 µM | 1.4 µM | COc1ccc(CNC(=O)NC2CC3(C2)CC(C(=O)N2CCCc4ccc(C)cc42)C3)cc1 (stereo not drawn) [Compound 108, 1-(4-methoxybenzyl)-3-(6-(7-methyl-1,2,3,4-tetrahydroquinoline-1-carbonyl)spiro[3.3]heptan-2-yl)urea] | –
4 | 3.5 µM | 10.2 µM | CC(C)(O)CN1CCN(C(=O)C2CC3(CC(NC(=O)NCc4ccc(F)cc4)C3)C2)CC1 (stereo not drawn) [Compound 109, 1-(4-fluorobenzyl)-3-(6-(4-(2-hydroxy-2-methylpropyl)piperazine-1-carbonyl)spiro[3.3]heptan-2-yl)urea] | –
5 | 1.0 µM | 26.8 µM | COc1ccc(CNC(=O)NC2CC3(C2)CC(C(=O)N2CCN(C4COC4)CC2)C3)cc1 (stereo not drawn) [Compound 111, 1-(4-methoxybenzyl)-3-(6-(4-(oxetan-3-yl)piperazine-1-carbonyl)spiro[3.3]heptan-2-yl)urea] | –
6 | 3.0 µM | 46.9 µM | COc1ccc(CNC(=O)NC2CC3(C2)CC(C(=O)N2CCN(CC4CC4)CC2)C3)cc1 (stereo not drawn) [Compound 112, 1-(6-(4-(cyclopropylmethyl)piperazine-1-carbonyl)spiro[3.3]heptan-2-yl)-3-(4-methoxybenzyl)urea] | –
7 | 3.8 µM | 51.6 µM | COc1ccc(CNC(=O)NC2CC3(C2)CC(C(=O)N2CCN(C)CC2CO)C3)cc1 (stereo not drawn) [Compound 113, 1-(6-(2-(hydroxymethyl)-4-methylpiperazine-1-carbonyl)spiro[3.3]heptan-2-yl)-3-(4-methoxybenzyl)urea] | –
8 | 11.0 µM | 33.1 µM | O=C(NCc1ccc(Cl)cc1)NC1CC2(C1)CC(NC(=O)c1ccccc1)C2 (stereo not drawn) [Compound 114, N-(6-(3-(4-chlorobenzyl)ureido)spiro[3.3]heptan-2-yl)benzamide] | –
9 | 10.2 µM | 14.7 µM | O=C(Cc1ccccc1)NC1CC2(C1)CC(NC(=O)NCc1ccc(Cl)cc1)C2 (stereo not drawn) [Compound 115, N-(6-(3-(4-chlorobenzyl)ureido)spiro[3.3]heptan-2-yl)-2-phenylacetamide] | –
10 | 3.2 µM | 33.9 µM | COc1ccc(CNC(=O)NC2CC3(C2)CN(S(=O)(=O)Cc2ccccc2Cl)C3)cc1 [Compound 117, 1-(2-((2-chlorobenzyl)sulfonyl)-2-azaspiro[3.3]heptan-6-yl)-3-(4-methoxybenzyl)urea] | –
11 | 3.0 µM | 14.2 µM | COc1ccc(CNC(=O)NC2CC3(C2)CN(S(=O)(=O)CCc2ccccc2Cl)C3)cc1 [Compound 118, 1-(2-((2-chlorophenethyl)sulfonyl)-2-azaspiro[3.3]heptan-6-yl)-3-(4-methoxybenzyl)urea] | –
12 | 5.9 µM | 47.6 µM | COc1ccc(CNC(=O)NC2CC3(C2)CC(C(=O)N2CCN(C(C)C)CC2)C3)cc1 (stereo not drawn) [Compound 122, 1-(6-(4-isopropylpiperazine-1-carbonyl)spiro[3.3]heptan-2-yl)-3-(4-methoxybenzyl)urea] | –
13 | 2.8 µM | 51.5 µM | COc1ccc(CNC(=O)NC2CC3(C2)CC(C(=O)N2CCN(Cc4cnn(C)c4)CC2)C3)cc1 (stereo not drawn) [Compound 123, 1-(4-methoxybenzyl)-3-(6-(4-((1-methyl-1H-pyrazol-4-yl)methyl)piperazine-1-carbonyl)spiro[3.3]heptan-2-yl)urea] | –
14 | 1.3 µM | 24.9 µM | COc1ccc(CNC(=O)NC2CC3(C2)CC(C(=O)N2CCN(Cc4ccncc4)CC2)C3)cc1 (stereo not drawn) [Compound 124, 1-(4-methoxybenzyl)-3-(6-(4-(pyridin-4-ylmethyl)piperazine-1-carbonyl)spiro[3.3]heptan-2-yl)urea] | –
15 | 7.9 µM | 51.2 µM | COc1ccc(CNC(=O)NC2CC3(C2)CC(C(=O)N2CCN(Cc4ccccn4)CC2)C3)cc1 (stereo not drawn) [Compound 125, 1-(4-methoxybenzyl)-3-(6-(4-(pyridin-2-ylmethyl)piperazine-1-carbonyl)spiro[3.3]heptan-2-yl)urea] | –
16 | 1.4 µM | 33.1 µM | COc1ccc(CNC(=O)NC2CC3(CC(CN4CCCc5c(F)cc(F)cc54)C3)C2)cc1 (stereo not drawn) [Compound 127, 1-(6-((5,7-difluoro-3,4-dihydroquinolin-1(2H)-yl)methyl)spiro[3.3]heptan-2-yl)-3-(4-methoxybenzyl)urea] | –
17 | 0.6 µM | 20.8 µM | COc1ccc(CNC(=O)NC2CC3(CC(CN4CCc5ccccc54)C3)C2)cc1 (stereo not drawn) [Compound 128, 1-(6-(indolin-1-ylmethyl)spiro[3.3]heptan-2-yl)-3-(4-methoxybenzyl)urea] | –
18 | 7.3 µM | 30.2 µM | COc1ccc(CNC(=O)NC2CC3(CC(CN4Cc5ccccc5C4)C3)C2)cc1 (stereo not drawn) [Compound 129, 1-(6-(isoindolin-2-ylmethyl)spiro[3.3]heptan-2-yl)-3-(4-methoxybenzyl)urea] | –
19 | 18.1 µM | 48 µM | COc1ccc(CNC(=O)NC2CC3(C2)CN(S(=O)(=O)C2CC4CCC2C4)C3)cc1 (stereo not drawn) [Compound 130, 1-(2-(bicyclo[2.2.1]heptan-2-ylsulfonyl)-2-azaspiro[3.3]heptan-6-yl)-3-(4-methoxybenzyl)urea] | –
20 | 17.6 µM | 48.5 µM | COC(=O)C1CCC(S(=O)(=O)N2CC3(CC(NC(=O)NCc4ccc(OC)cc4)C3)C2)CC1 (stereo not drawn) [Compound 131, methyl 4-((6-(3-(4-methoxybenzyl)ureido)-2-azaspiro[3.3]heptan-2-yl)sulfonyl)cyclohexane-1-carboxylate] | –
21 | 17.5 µM | 61.2 µM | COc1ccc(CNC(=O)NC2CC3(C2)CN(C(=O)Nc2cnc(C)nc2)C3)cc1 [Compound 133, 6-(3-(4-methoxybenzyl)ureido)-N-(2-methylpyrimidin-5-yl)-2-azaspiro[3.3]heptane-2-carboxamide] | –

Row | SMILES | AC1.4 Human [1] | EC50 [2] | EC50
22 | COc1ccc(CNC(=O)NC2CC3(C2)CN(S(=O)(=O)c2ccccc2Cl)C3)cc1 [Compound 116, 1-(2-((2-chlorophenyl)sulfonyl)-2-azaspiro[3.3]heptan-6-yl)-3-(4-methoxybenzyl)urea] | 8.0 µM | – | 51.3 µM
23 | O=C(NCc1ccc(Cl)cc1)NC1CC2(C1)CC(N(Cc1ccccc1)Cc1ccccc1)C2 (stereo not drawn) [Compound 119, 1-(4-chlorobenzyl)-3-(6-(dibenzylamino)spiro[3.3]heptan-2-yl)urea] | 3.8 µM | 16.7 µM | –
24 | COc1ccc(CNC(=O)NC2CC3(C2)CN(C(=O)Nc2cccc(C#N)n2)C3)cc1 [Compound 132, N-(6-cyanopyridin-2-yl)-6-(3-(4-methoxybenzyl)ureido)-2-azaspiro[3.3]heptane-2-carboxamide] | 15.0 µM | – | 42.8 µM
